Test results as given in patent publication US8357673B2, “4-arylazo-3,5-diamino-pyrazole compounds and use thereof” (Univerzita Palackeho V Olomouci, priority 2004, dated 2013).
Like-named read-outs stand apart in the source and are kept apart here.

What was measured:
[1] = biological target: T1, CDK1/cyclin B (Homo sapiens, UniProt P06493); test: CDK1/cyclin B kinase inhibition assay (histone H1, [γ-33P]ATP); type: biochemical; details: averaged from triplicates; 15 μM ATP
T1 construct: made in house; host or cells: Sf9 insect cells (baculovirus co-infection)
Protocol: (§1) CDK1/cyclin B and CDK2/cyclin E kinases were produced in Sf9 insect cells coinfected with appropriate baculoviral constructs. The cells were harvested 70 h post infection, incubated in lysis buffer (50 mM Tris pH 7.4, 150 mM NaCl, 5 mM EDTA, 20 mM NaF, 1% Tween 20, 1 mM DTT, 0.1 mM PMSF, 0.5 μg/ml leupeptine, 1 μg/ml aprotonine) for 30 min on ice and the soluble fraction was recovered by centrifugation at 20.000 g for 10 min. The enzymes were purified on NiNTA column (Qiagen), stored at 4° C. and used within a week. To carry out the enzyme inhibition assays under linear conditions, the final point test system for kinase activity measurement was used. Kinase was added to reaction mixture in such a way as to obtain linear activity with respect to the concentration of enzyme and with respect to time. For determination of kinase inhibition the reaction mixture contained 1 mg/ml histone H1 (type III-S, Sigma) in the presence of 15 μM ATP, 0.05 μCi [γ-^33P]ATP and the tested compound in a final volume of 10 μl; all in reaction buffer (50 mM HEPES, 10 mM MgCl2, 5 mM EGTA, 10 mM 2-glycerolphosphate, 1 mM NaF, 1 mM DTT, pH 7.4). After 20 min incubation, the reactions were stopped by the addition of 5 μl of a 3% H3PO4, aliquots were spotted on P-81 phosphocellulose (Whatman, USA) that was subsequently washed 3× with 5% H3PO4 and finally air dried. The measurements of kinase inhibition employed digital image analyzer BAS-1800 (Fujifilm, Japan). Kinase activity was usually expressed as a percentage of maximum activity. […] For the purpose of kinetic analysis, the activity was expressed as arbitrary units (AU) of digital image analyzer signal.

[2] = system: K562 (human chronic myeloblastic leukemia); test: In vitro cytotoxicity, Calcein AM, 72 h; type: cell-based; details: for IC50: read-out: IC50 (μM) K562; for % of viable cells K562: at 100 μM
Protocol: (§2) Tested drugs were added to the cell cultures in six different concentration and kept at 37° C. and 5% CO2 for three days.
(§3) The cells, cultured in DMEM (supplemented with 10% fetal calf serum, 4 mM glutamine, 100 IU/ml penicillin, 100 μg/ml streptomycin) in a humidified CO2 incubator at 37° C., were redistributed into 96-well microtitre plates (10.000 cells per well). After 12 h preincubation, tested compounds in six-fold dilutions were added. Treatment of cells with the tested compounds (in the 1-100 μM range) lasted for 72 h.

[3] = system: G 361 (human malignant melanoma); test: In vitro cytotoxicity, Calcein AM, 72 h; type: cell-based; details: for IC50: read-out: IC50 (μM) G361; for % of viable cells G361: at 100 μM
Protocol: as §2, §3

[4] = system: MCF7 (human breast adenocarcinoma); test: In vitro cytotoxicity, Calcein AM, 72 h; type: cell-based; details: for IC50: read-out: IC50 (μM) MCF7; for % of viable cells MCF7: at 100 μM
Protocol: as §2, §3

[5] = In vitro cytotoxicity, Calcein AM, 72 h; type: cell-based, human; details: human, at 100 μM
Protocol: as §2, §3

[6] = system: HOS (human osteogenic sarcoma); test: In vitro cytotoxicity, Calcein AM, 72 h; type: cell-based; details: for IC50: read-out: IC50 (μM) HOS; for % of viable cells HOS: at 100 μM
Protocol: as §2, §3

[7] = biological target: T2, CDK2/cyclin E (Homo sapiens, UniProt P24941); test: CDK2/cyclin E kinase inhibition assay (histone H1, [γ-33P]ATP); type: biochemical; details: averaged from triplicates; 15 μM ATP
T2 construct: made in house; host or cells: Sf9 insect cells (baculovirus co-infection)
Protocol: as §1

[8] = in vitro; type: cell-based; details: human
Protocol: The following cell lines were used: HELA (human cervical carcinoma), MCF7 (human breast adenocarcinoma), NIH 3T3 (mouse fibroblasts), HOS (human osteogenic sarcoma), HL 60 (human promyelocytic leukemia), G 361 (human malignant melanoma), K562 (human chronic myeloblastic leukemia), CEM (human lymphoblastoid leukaemia). Tested drugs were added to the cell cultures in six different concentration and kept at 37° C. and 5% CO2 for three days.
as §3, with “h. At the end of this period, the cells were fed for 1 h with Calcein AM and the fluorescence of the live cells was measured at 485 nm/538 nm (ex/em) with a Fluoroskan Ascent (Labsystems, Finland).” for “h.”

[9] = system: CDK1 and CDK2; test: CDK inhibition, for CDK1 and CDK2 together; type: biochemical
Protocol: as §1, with “After 20 min incubation, the reactions were stopped by the addition of 5 μl of a 3% H3PO4, aliquots were spotted on P-81 phosphocellulose (Whatman, USA) that was subsequently washed 3× with 5% H3PO4 and finally air dried. The measurements of kinase inhibition employed digital image analyzer BAS-1800 (Fujifilm, Japan).” left out

[10] = biological target: CDK7 (Homo sapiens, UniProt P50613); details: Knockaert et al 2000, Cohen 2003; cited from earlier work
[11] = system: MAPK1; details: Knockaert et al 2000, Cohen 2003; cited from earlier work
[12] = Homo sapiens, K562, 72 h, Calcein AM, triplicates
[13] = Homo sapiens, G-361, 72 h, Calcein AM, triplicates
[14] = Homo sapiens, MCF7, 72 h, Calcein AM, triplicates
[15] = G 361 cells (human malignant melanoma), 72 h, read-out: % of viable cells G361
[16] = HOS cells (human osteogenic sarcoma), read-out: % of viable cells HOS
[17] = K562 cells (human chronic myeloblastic leukemia), 72 h, read-out: % of viable cells K562
[18] = MCF7 cells (human breast adenocarcinoma), 72 h, read-out: % of viable cells MCF7
[19] = Homo sapiens, Calcein AM, triplicates

T1 sequence (P06493 whole entry): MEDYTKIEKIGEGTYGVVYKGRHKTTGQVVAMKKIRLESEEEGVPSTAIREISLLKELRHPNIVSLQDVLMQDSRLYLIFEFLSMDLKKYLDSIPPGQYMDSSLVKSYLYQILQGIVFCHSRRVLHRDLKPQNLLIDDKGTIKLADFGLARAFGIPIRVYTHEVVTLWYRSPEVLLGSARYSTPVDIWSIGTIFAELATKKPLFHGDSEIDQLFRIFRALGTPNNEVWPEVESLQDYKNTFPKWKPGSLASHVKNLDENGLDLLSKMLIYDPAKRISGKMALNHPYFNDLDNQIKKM
T1 sequence (P14635 whole entry partner): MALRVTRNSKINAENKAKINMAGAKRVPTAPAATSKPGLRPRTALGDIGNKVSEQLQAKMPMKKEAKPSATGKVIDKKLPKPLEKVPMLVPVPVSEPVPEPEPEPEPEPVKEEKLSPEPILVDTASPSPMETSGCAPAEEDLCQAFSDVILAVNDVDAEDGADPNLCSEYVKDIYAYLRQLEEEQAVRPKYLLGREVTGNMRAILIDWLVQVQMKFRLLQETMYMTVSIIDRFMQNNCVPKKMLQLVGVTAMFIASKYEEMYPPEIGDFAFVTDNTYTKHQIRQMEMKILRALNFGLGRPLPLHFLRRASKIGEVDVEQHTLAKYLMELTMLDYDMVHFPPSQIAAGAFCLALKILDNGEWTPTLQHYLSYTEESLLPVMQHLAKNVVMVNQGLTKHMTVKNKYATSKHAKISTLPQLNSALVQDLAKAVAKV
CDK7, sequence (P50613 whole entry, species assumed): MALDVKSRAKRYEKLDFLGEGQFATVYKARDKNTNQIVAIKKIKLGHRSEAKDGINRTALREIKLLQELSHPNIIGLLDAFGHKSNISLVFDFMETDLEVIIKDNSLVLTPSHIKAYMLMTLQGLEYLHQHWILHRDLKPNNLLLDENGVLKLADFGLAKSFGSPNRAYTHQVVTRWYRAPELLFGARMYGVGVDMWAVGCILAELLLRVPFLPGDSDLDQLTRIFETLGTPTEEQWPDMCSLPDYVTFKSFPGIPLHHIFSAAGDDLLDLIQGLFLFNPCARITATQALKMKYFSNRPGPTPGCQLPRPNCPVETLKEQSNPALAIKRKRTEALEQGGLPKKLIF
CDK7, sequence (P51946 whole entry partner, species assumed): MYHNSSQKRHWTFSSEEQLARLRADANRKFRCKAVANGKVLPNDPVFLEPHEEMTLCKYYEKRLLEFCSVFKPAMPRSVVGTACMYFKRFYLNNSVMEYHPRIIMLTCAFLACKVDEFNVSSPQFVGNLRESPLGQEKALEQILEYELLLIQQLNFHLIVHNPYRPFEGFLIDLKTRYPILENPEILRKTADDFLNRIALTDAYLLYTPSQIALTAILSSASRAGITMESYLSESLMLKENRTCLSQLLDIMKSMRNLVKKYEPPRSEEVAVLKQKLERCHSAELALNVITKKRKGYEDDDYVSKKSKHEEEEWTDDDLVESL

| SMILES | IC50 [1] | IC50 [2, 12] | IC50 [3, 13] | IC50 [4, 14] | viability at 72 h, 100 µM [5, 15] | viability at 72 h, 100 µM [5, 16] | viability at 72 h, 100 µM [5, 17] | viability at 72 h, 100 µM [5, 18] | IC50 [6, 19] | IC50 [7] | also measured |
| --- | --- | --- | --- | --- | --- | --- | --- | --- | --- | --- | --- |
| Nc1n[nH]c(N)c1/N=N/c1cccc(O)c1 [Compound 11b, 3,5-diamino-4-(3-hydroxy)phenylazo-pyrazole] | 6 µM | > 100 µM | > 100 µM | > 100 µM | 70% | 83% | 53% | 71% | > 100 µM |  |  |
| Nc1n[nH]c(N)c1/N=N/c1ccccc1O [Compound 10b, 3,5-diamino-4-(2-hydroxy)phenylazo-pyrazole] | 3.6 µM | > 100 µM | > 100 µM | > 100 µM | 74% | 84% | 72% | 72% | > 100 µM |  |  |
| Nc1n[nH]c(N)c1N=Nc1ccccc1CO [Compound 16b, 3,5-diamino-4-(2-hydroxymethyl)phenylazo-pyrazole] | 21 µM | > 100 µM | > 100 µM | > 100 µM | 84% | 87% | 86% | 51% | > 100 µM | 17 µM |  |
| Cn1cnc2c(NCc3ccccc3)nc(NCCO)nc21 [olomoucine, reference compound] |  |  |  |  |  |  |  |  |  |  | IC50 at 72 h [8]: > 100 µM |
| Nc1n[nH]c(N)c1N=Nc1cccc2ccccc12 [Compound 28b, 3,5-diamino-4-(naphth-1-yl)azo-pyrazole] | 5.5 µM |  |  |  |  |  |  |  |  | 10 µM | IC50 ([2]; 72 h, Calcein AM, triplicates): 50 ± 3 µM; % of viable cells K562 ([2]; 72 h): (7.7 ± 6%); IC50 ([3]; 72 h, Calcein AM, triplicates): > 100 µM; % of viable cells G361 ([3]; 72 h): (55 ± 14%); IC50 ([4]; 72 h, Calcein AM, triplicates): > 100 µM; % of viable cells MCF7 ([4]; 72 h): (56 ± 1%); IC50 ([6]; Calcein AM, triplicates): > 100 µM; % of viable cells HOS [6]: (79 ± 8%) |
| Nc1n[nH]c(N)c1/N=N/c1ccc([N+](=O)[O-])cc1 [Compound 9b, 3,5-diamino-4-(4-nitro)phenylazo-pyrazole] | 16 µM |  |  |  | 61% | 80% | 25% | 60% |  |  | IC50 ([2]; Homo sapiens, K562, 72 h): 71 ± 6 µM; IC50 ([3]; Homo sapiens, G-361, 72 h): > 100 µM; IC50 ([4]; Homo sapiens, MCF7, 72 h): > 100 µM; IC50 ([6]; Homo sapiens): > 100 µM |
| Nc1n[nH]c(N)c1N=Nc1ccccc1 [Compound 1b, 3,5-diamino-4-(phenyl)azo-pyrazole] | 25 µM |  |  |  |  |  |  |  |  | 22 µM | IC50 ([2]; 72 h, Calcein AM, triplicates): > 100 µM; % of viable cells K562 ([2]; 72 h): (90 ± 14%); IC50 ([3]; 72 h, Calcein AM, triplicates): > 100 µM; % of viable cells G361 ([3]; 72 h): (75 ± 2%); IC50 ([4]; 72 h, Calcein AM, triplicates): > 100 µM; % of viable cells MCF7 ([4]; 72 h): (74 ± 5%); IC50 ([6]; Calcein AM, triplicates): > 100 µM; % of viable cells HOS [6]: (83 ± 8%) |
| Nc1n[nH]c(N)c1N=Nc1ccccc1C(=O)O [Compound 13b, 3,5-diamino-4-(2-carboxy)phenylazo-pyrazole] | 70 µM |  |  |  |  |  |  |  |  | 88 µM |  |
| NCc1ccc(/N=N/c2c(N)n[nH]c2N)cc1 [Compound 17b, 3,5-diamino-4-(4-aminomethyl)phenylazo-pyrazole] | > 100 µM |  |  |  |  |  |  |  |  | > 100 µM | CDK inhibitory activity (in words) [9]: low activity (almost zero) |
| Nc1n[nH]c(N)c1N=Nc1cccc2c1CCCC2 [Compound 30b] | > 100 µM |  |  |  |  |  |  |  |  | > 100 µM | CDK inhibitory activity (in words) [9]: only a weak impact on CDK activity; IC50 ([2]; 72 h, Calcein AM, triplicates): 55 ± 1 µM; % of viable cells K562 ([2]; 72 h): (26 ± 7) %; IC50 ([3]; 72 h, Calcein AM, triplicates): 77 ± 4 µM; % of viable cells G361 ([3]; 72 h): (27 ± 5) %; IC50 ([4]; 72 h, Calcein AM, triplicates): 81 ± 9 µM; % of viable cells MCF7 ([4]; 72 h): (39 ± 10%); IC50 ([6]; Calcein AM, triplicates): 92 ± 5 µM; % of viable cells HOS [6]: (32 ± 6%) |
| Nc1n[nH]c(N)c1/N=N/c1cccc([N+](=O)[O-])c1 [Compound 8b, 3,5-diamino-4-(3-nitro)phenylazo-pyrazole] | 4.8 µM | 79 ± 6 µM | > 100 µM | 65 ± 7 µM | 69% | 95% | 28% | 44% | > 100 µM |  |  |
| Nc1n[nH]c(N)c1N=Nc1ccccc1[N+](=O)[O-] [Compound 7b, 3,5-diamino-4-(2-nitro)phenylazo-pyrazole] | 2.6 µM | 100 ± 10 µM | > 100 µM | > 100 µM | 58% | 57% | 48% | 62% | > 100 µM | 6.1 µM |  |
| CC[C@H](CO)Nc1nc(NCc2ccccc2)c2ncn(C(C)C)c2n1 [roscovitine] |  |  |  |  |  |  |  |  |  |  | effect on CDK7 (in words) [10]: strong effect; effect on MAPK1 (in words) [11]: strong effect |
